Source: patent US20260285850A1, “SUBSTITUTED OXAZOLIDINONES AND IMIDAZOLINONES AS HERBICIDES” (FMC CORPORATION, priority 2023, published 2026)

Legend:
Assay type in all cases: in vivo
[1] = test system: ryegrass, Italian (italian ryegrass, Lolium multiflorum); test: Test A postemergence application, visual injury rating 0-100
Method in brief: (§1)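 Seeds sown in loam-sand blend got a preemergence directed soil spray, or emerged plants (2-10 cm, one- to two-leaf) got a postemergence spray, of compound in non-phytotoxic solvent with surfactant. After 10 days in greenhouse, injury rated visually versus untreated controls on a 0 (no effect) to 100 (complete control) scale.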

corn (Zea mays) [2] = test: as above
Method in brief: as §1

soybean (Glycine max) [3] = test: as above
Method in brief: as §1

[4] = test system: green foxtail (Setaria viridis); test: as above
Method in brief: as §1

[5] = test system: oat, wild (wild oat, Avena fatua); test: as above
Method in brief: as §1

[6] = test system: palmer (palmer amaranth, palmer pigweed, Amaranthus palmeri); test: as above
Method in brief: as §1

kochia (Bassia scoparia) [7] = test: as above
Method in brief: as §1

[8] = test system: ragweed (common ragweed, Ambrosia artemisiifolia); test: as above
Method in brief: as §1

[9] = test system: barnyardgrass (Echinochloa crus-galli); test: as above
Method in brief: as §1

[10] = test system: galium (catchweed bedstraw, Galium aparine); test: as above
Method in brief: as §1

[11] = test system: wheat (Triticum aestivum); test: as above
Method in brief: as §1

[12] = test system: horseweed (Erigeron canadensis); test: as above
Method in brief: as §1

[13] = test system: blackgrass (Alopecurus myosuroides); test: as above
Method in brief: as §1

[14] = test system: ryegrass, Italian (italian ryegrass, Lolium multiflorum); test: Test A preemergence soil spray, visual injury rating 0-100; settings: 10 days
Method in brief: as §1

corn (Zea mays) [15] = test: as above; settings: 16 g ai/ha, 0 to 100 scale, 10 days
Method in brief: as §1

soybean (Glycine max) [16] = test: as above; settings: 10 days
Method in brief: as §1

[17] = test system: green foxtail (Setaria viridis); test: as above; settings: 10 days
Method in brief: as §1

[18] = test system: oat, wild (wild oat, Avena fatua); test: as above; settings: 10 days
Method in brief: as §1

[19] = test system: palmer (palmer amaranth, palmer pigweed, Amaranthus palmeri); test: as above; settings: 62 g ai/ha, 10 days, 0 = no effect, 100 = complete control
Method in brief: as §1

kochia (Bassia scoparia) [20] = test: as above; settings: 10 days
Method in brief: as §1

[21] = test system: ragweed (common ragweed, Ambrosia artemisiifolia); test: as above; settings: 10 days
Method in brief: as §1

[22] = test system: barnyardgrass (Echinochloa crus-galli); test: as above; settings: 10 days
Method in brief: as §1

[23] = test system: wheat (Triticum aestivum); test: as above; settings: 10 days
Method in brief: as §1

[24] = test system: blackgrass (Alopecurus myosuroides); test: as above; settings: 10 days
Method in brief: as §1

[25] = test system: ducksalad (Heteranthera limosa); test: Test B flooded paddy test, visual plant response rating 0-100; settings: 250 g ai/ha, Flood, applied to paddy water, evaluated after 13 days
Method in brief: (§2)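 Visual evaluation after 13 days. Water-applied treatment, 3 cm flood depth held constant, plants at 2-leaf stage at treatment.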

[26] = test system: sedge, umbrella (small-flower umbrella sedge, Cyperus difformis); test: as above; settings: 250 g ai/ha, Flood, applied to paddy water, evaluated after 13 days
Method in brief: as §2

rice (Oryza sativa) = test: as above; settings: 250 g ai/ha, Flood, applied to paddy water, evaluated after 13 days
Method in brief: as §2

[27] = test system: barnyardgrass (Echinochloa crusgalli); test: as above; settings: 250 g ai/ha, Flood, applied to paddy water, evaluated after 13 days
Method in brief: as §2

[28] = 62 g ai/ha, postemergence, 10 days, 0 = no effect, 100 = complete control
[29] = Postemergence, 16 g ai/ha, greenhouse 10 days, 0 no effect, 100 complete control
[30] = 62 g ai/ha, 0 = no effect, 100 = complete control

CCOC(=O)C1=CCC(NC(=O)C2(C)CN(c3cc(F)cc(Cl)c3)C(=O)O2)C1 (centres unmarked) [Compound 133]
100: Corn plant response rating (0-100) (corn (Zea mays) [2]; [28]) | Corn plant response rating (0 to 100 scale) (corn (Zea mays) [2]; [29]) | Barnyardgrass plant response rating (0-100) [9, 28] | Barnyardgrass plant response rating (0 to 100 scale) [9, 29]
90: Ryegrass, Italian plant response rating (0-100) [1, 28] | Foxtail, Green plant response rating (0-100) [4, 28] | Foxtail, Green plant response rating (0 to 100 scale) [4, 29] | Pigweed, Palmer plant response rating (0-100) [6, 28] | Pigweed, Palmer plant response rating (0 to 100 scale) [6, 29] | Kochia plant response rating (0-100) (kochia (Bassia scoparia) [7]; [28]) | Wheat plant response rating (0-100) [11, 28] | Blackgrass plant response rating (0-100) [13, 28] | Foxtail, Green plant response rating (0-100) [17, 30] | Pigweed, Palmer plant response rating (0-100) [19] | Wheat plant response rating (0-100) [23, 30]
20: Kochia plant response rating (0-100) (kochia (Bassia scoparia) [20]; [30]) | Blackgrass plant response rating (0-100) [24, 30]
85: Plant response rating, Ducksalad (0 to 100 scale, 0 is no effect and 100 is complete control) [25] | Plant response rating, Rice (0 to 100 scale, 0 is no effect and 100 is complete control) (rice (Oryza sativa))
0: Horseweed plant response rating (0 to 100 scale) [12, 29] | Corn plant response rating (corn (Zea mays) [15]) | Soybean plant response rating (soybean (Glycine max) [16]; 16 g ai/ha, 0 to 100 scale) | Soybean plant response rating (0-100) (soybean (Glycine max) [16]; [30]) | Foxtail, Green plant response rating ([17]; 16 g ai/ha, 0 to 100 scale) | Oat, Wild plant response rating ([18]; 16 g ai/ha, 0 to 100 scale) | Oat, Wild plant response rating (0-100) [18, 30] | Kochia plant response rating (kochia (Bassia scoparia) [20]; 16 g ai/ha, 0 to 100 scale) | Ragweed plant response rating ([21]; 16 g ai/ha, 0 to 100 scale) | Ragweed plant response rating (0-100) [21, 30] | Barnyardgrass plant response rating ([22]; 16 g ai/ha, 0 to 100 scale) | Wheat plant response rating ([23]; 16 g ai/ha, 0 to 100 scale) | Blackgrass plant response rating ([24]; 16 g ai/ha, 0 to 100 scale)
10: Ryegrass, Italian plant response rating ([14]; 16 g ai/ha, 0 to 100 scale)
98: Plant response rating, Sedge, Umbrella (0 to 100 scale, 0 is no effect and 100 is complete control) [26]
80: Kochia plant response rating (0 to 100 scale) (kochia (Bassia scoparia) [7]; [29]) | Wheat plant response rating (0 to 100 scale) [11, 29] | Horseweed plant response rating (0-100) [12, 28] | Ryegrass, Italian plant response rating (0-100) [14, 30] | Barnyardgrass plant response rating (0-100) [22, 30]
30: Ragweed plant response rating (0 to 100 scale) [8, 29]
40: Oat, Wild plant response rating (0 to 100 scale) [5, 29]
95: Plant response rating, Barnyardgrass (0 to 100 scale, 0 is no effect and 100 is complete control) [27]
70: Soybean plant response rating (0-100) (soybean (Glycine max) [3]; [28]) | Oat, Wild plant response rating (0-100) [5, 28] | Ragweed plant response rating (0-100) [8, 28] | Galium plant response rating (0-100) [10, 28] | Blackgrass plant response rating (0 to 100 scale) [13, 29]
60: Ryegrass, Italian plant response rating (0 to 100 scale) [1, 29] | Soybean plant response rating (0 to 100 scale) (soybean (Glycine max) [3]; [29]) | Galium plant response rating (0 to 100 scale) [10, 29]
